Structures can show the parent of a compound that is named as a salt.
Tests used:
LSD1 = LSD1 (Homo sapiens (Human), UniProt O60341); assay: In vitro enzyme inhibition assay - LSD1 (HTRF); format: biochemical
NCI-H1417 cells = assay: In vitro cell inhibition assay - H1417 cell proliferation (CellTiter-Glo); format: cell-based; conditions: Homo sapiens, NCI-H1417, H1417 small cell lung cancer cell proliferation
Summary of the method: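 Cells exposed to 8 compound concentrations (5-fold dilutions) in BEGM with 10% FBS for 7 days at 37° C., 5% CO2. Viable cells measured by CellTiter-Glo luminescence; inhibition versus no-inhibitor and no-cell controls, IC50 fitted.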

DU145 cells = assay: In vitro cell inhibition assay - DU145 cell proliferation (CellTiter-Glo); format: cell-based; conditions: Homo sapiens, DU-145, Du145 prostate cancer cell proliferation
Summary of the method: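 Viability read-out was CellTiter-Glo luminescence after a 6-day, 37° C exposure of DU145 cells (1×10^3/well, 10% FBS RPMI-640) to 8 compound concentrations in 5-fold steps.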

pan-HDAC = assay: In vitro enzyme inhibition assay - HDAC (HDAC-Glo I/II), pan-HDAC; format: biochemical
Summary of the method: (§1)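 Eight compound concentrations (5-fold gradient; 1 mM DMSO stock) were assayed by HDAC-Glo I/II luminescence. IC50 was obtained by four-parameter fitting.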

HDAC1 = HDAC1 (Homo sapiens (Human), UniProt Q13547); assay: In vitro enzyme inhibition assay - HDAC (HDAC-Glo I/II), HDAC1; format: biochemical; conditions: read-out: HDAC IC50 (nM) HDAC 1
Summary of the method: as §1

NCI-H69 cells = assay: In vitro cell inhibition assay - NCI-H69 cell proliferation (CellTiter-Glo); format: cell-based; conditions: Homo sapiens, NCI-H69, H69 small cell lung cancer cell proliferation
Summary of the method: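 CellTiter-Glo luminescence measured viability after a 7-day, 37° C. exposure of NCI-H69 cells (1×10^3/well) to an 8-point, 5-fold dilution series in RPMI-640/20% FBS. Inhibition was normalised to untreated and cell-free wells and IC50 derived by curve fitting.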

HDAC8 = HDAC8 (Homo sapiens (Human), UniProt Q9BY41); assay: In vitro enzyme inhibition assay - HDAC (HDAC-Glo I/II), HDAC8; format: biochemical; conditions: read-out: HDAC IC50 (nM) HDAC 8
Summary of the method: as §1

NCI-H526 cells = assay: In vitro cell inhibition assay - NCI-H526 cell proliferation (CellTiter-Glo); format: cell-based; conditions: Homo sapiens, NCI-H526, 120 h, H526 small cell lung cancer cell proliferation, 5 days
Summary of the method: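 NCI-H526 cells plated at 1×10^3 per well overnight, then treated with 8 concentrations (5-fold dilutions) in RPMI-640 with 10% FBS for 5 days at 37° C., 5% CO2. Viable cells quantified by CellTiter-Glo luminescence; IC50 fitted from inhibition rates relative to no-inhibitor and no-cell controls.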

HDAC8, sequence (Q9BY41 whole entry): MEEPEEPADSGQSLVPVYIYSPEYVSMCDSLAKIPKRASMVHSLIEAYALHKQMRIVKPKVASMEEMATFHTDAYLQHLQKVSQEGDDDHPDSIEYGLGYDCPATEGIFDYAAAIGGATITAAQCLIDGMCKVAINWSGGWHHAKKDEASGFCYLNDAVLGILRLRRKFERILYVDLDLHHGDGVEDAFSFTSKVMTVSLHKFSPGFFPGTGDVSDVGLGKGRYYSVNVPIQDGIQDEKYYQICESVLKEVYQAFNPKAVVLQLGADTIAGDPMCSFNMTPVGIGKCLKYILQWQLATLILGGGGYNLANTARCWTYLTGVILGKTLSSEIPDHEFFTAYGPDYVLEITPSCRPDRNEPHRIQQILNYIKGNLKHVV
HDAC1, sequence (Q13547 whole entry): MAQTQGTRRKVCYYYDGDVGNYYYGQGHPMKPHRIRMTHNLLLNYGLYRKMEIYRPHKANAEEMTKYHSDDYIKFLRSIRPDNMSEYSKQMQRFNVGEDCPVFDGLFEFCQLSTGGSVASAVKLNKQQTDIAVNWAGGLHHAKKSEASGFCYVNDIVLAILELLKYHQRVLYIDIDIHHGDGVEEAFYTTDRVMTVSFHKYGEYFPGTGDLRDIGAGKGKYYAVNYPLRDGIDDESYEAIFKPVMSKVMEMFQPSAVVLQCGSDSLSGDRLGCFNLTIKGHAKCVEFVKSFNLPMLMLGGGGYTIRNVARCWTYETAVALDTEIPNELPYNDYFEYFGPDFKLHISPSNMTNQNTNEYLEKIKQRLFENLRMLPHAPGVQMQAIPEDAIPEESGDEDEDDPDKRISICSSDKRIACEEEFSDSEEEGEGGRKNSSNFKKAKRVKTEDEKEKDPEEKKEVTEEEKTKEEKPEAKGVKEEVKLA

Row | Compound | IC50 (LSD1) [nM] | IC50 (NCI-H1417 cells) [nM] | IC50 (DU145 cells) [nM] | IC50 (pan-HDAC) [nM] | IC50 (HDAC1) [nM] | IC50 (NCI-H69 cells) [nM] | IC50 (HDAC8) [nM] | IC50 (NCI-H526 cells) [nM]
1 | COc1ccc(-c2cnc(N3CCC(NCc4ccc(/C=C/C(=O)NO)cc4)CC3)c(C#N)c2-c2ccc(C#N)cc2F)cc1O [Example 134, (E)-3-(4-(((1-(3-Cyano-4-(4-cyano-2-fluorophenyl)-5-(3-hydroxy-4-methoxyphenyl)pyridin-2-yl)piperidin-4-yl)amino)methyl)phenyl)-N-hydroxyacrylamide formate] | 13.6 | 5.1 | 20.3 | 3.55 | 0.32 | 8.37 | 46 | 13.8
2 | COc1ccc(-c2cnc(N3CCC(NCc4ncc(/C=C/C(=O)NO)cn4)CC3)c(C#N)c2-c2ccc(C#N)c(F)c2)cc1O [Example 135, (E)-3-(2-(((1-(3-Cyano-4-(4-cyano-3-fluorophenyl)-5-(3-hydroxy-4-methoxyphenyl)pyridin-2-yl)piperidin-4-yl)amino)methyl)pyrimidin-5-yl)-N-hydroxyacrylamide formate] | 3.16 | 6 | 1580 | 39.7 | 17.3 | 199 | 1010 | 200
3 | N#Cc1ccc(-c2c(-c3ccc(O)c(O)c3)cnc(N3CCC(NCc4ccc(/C=C/C(=O)NO)cc4)CC3)c2C#N)cc1F [Example 137, (E)-3-(4-(((1-(3-Cyano-4-(4-cyano-3-fluorophenyl)-5-(3,4-dihydroxyphenyl)pyridin-2-yl)piperidin-4-yl)amino)methyl)phenyl)-N-hydroxyacrylamide hydrochloride] | 27.8 | 5.43 | 63.5 | 6.04 | 0.52 | 7.01 | 107 | 22.9

Continued, values first:

Row | IC50 (LSD1) [nM] | IC50 (NCI-H1417 cells) [nM] | IC50 (DU145 cells) [nM] | IC50 (pan-HDAC) [nM] | IC50 (HDAC1) [nM] | IC50 (NCI-H69 cells) [nM] | IC50 (HDAC8) [nM] | IC50 (NCI-H526 cells) [nM] | Compound
4 | 0.1 | 1.03 | 23.7 | 1.7 | 1.25 | 16.8 | 111 | 18.1 | CC(C)(O)COc1ccc(-c2cnc(N3CCC(NCc4ccc(/C=C/C(=O)NO)cc4)CC3)c(C#N)c2-c2ccc(C#N)c(F)c2)cc1O [Example 143, (E)-3-(4-(((1-(3-Cyano-4-(4-cyano-3-fluorophenyl)-5-(3-hydroxy-4-(2-hydroxy-2-methylpropoxy)phenyl)pyridin-2-yl)piperidin-4-yl)amino)methyl)phenyl)-N-hydroxyacrylamide formate]
5 | 1.07 | 11.2 | 9.28 | 0.86 | 0.21 | 11.2 | 91.6 | 8.4 | COc1ccc(-c2cnc(N3CCC(NCc4ccc(/C=C/C(=O)NO)cc4)CC3)c(C)c2-c2ccc(C#N)c(F)c2)cc1O [Example 144, (E)-3-(4-(((1-(4-(4-Cyano-3-fluorophenyl)-5-(3-hydroxy-4-methoxyphenyl)-3-methylpyridin-2-yl)piperidin-4-yl)amino)methyl)phenyl)-N-hydroxyacrylamide hydrochloride]
6 | 0.59 | 5.53 | 9.26 | 1.3 | 0.21 | 16.9 | 89.3 | 9.84 | COc1ccc(-c2cnc(N3CCC(NCc4ccc(/C=C/C(=O)NO)cc4)CC3)c(C#N)c2-c2ccc([N+](=O)[O-])cc2)cc1O [Example 150, (E)-3-(4-(((1-(3-Cyano-5-(3-hydroxy-4-methoxyphenyl)-4-(4-nitrophenyl)pyridin-2-yl)piperidin-4-yl)amino)methyl)phenyl)-N-hydroxyacrylamide formate]

Reference: US20250304549A1, “HYDROXYAMIDE DERIVATIVE AND USE THEREOF” (SICHUAN HUIYU PHARMACEUTICAL CO., LTD., priority 2022, published 2025)
